# Laboratory results taken from publication PMC11026381, “Late-stage meta-C–H alkylation of pharmaceuticals to modulate biological properties and expedite molecular optimisation in a single step” (Nature Communications, 2024).
# What was measured:
# [1] = Thermodynamic solubility, shake-flask approach, phosphate buffer pH 7.4; format: physicochemical; settings: pH 7.4, phosphate buffer 0.1 M, 20 °C, n = 1
# Excerpt: (§1) 5. Pharmaceutically relevant properties modulation
# (§2) Product analogues 5e, 6a-6k obtained after late-stage meta-C–H alkylation of the pharmaceutically active compound Emapunil (4e) were subjected to a range of fundamental in vitro drug discovery assays. To prevent hydrolysis of ester groups present on these analogues during biological testing (in order to compare the clearance and metabolic stability between these drug derivatives), their corresponding free acids 5e’, 6a’-6k’ were synthesised (see page S54) and subjected to similar assays.
# The experimental methods used for these physicochemical & drug metabolism and pharmacokinetics (DMPK) assays are described below 11.
# This method measures the thermodynamic solubility of compounds based on a shake-flask approach12.
# The nature of the solid state was unknown in these experiments and may be subject to variability. The compounds were dissolved in DMSO (30 μL, 10 mM) in glass vials, and were dried using a Genevac vacuum evaporator (Genevac Ltd, Ipswich, UK). When the samples were dry, 300 μL of phosphate buffer (0.1 M, pH 7.4) was added to the glass vials. The vials were put on an Edmund Bühler shaker (Edmund Bühler GmbH, Hechingen, Germany) at 20 °C for 18 hours. Samples were filtered through a Whatman GF/B 96-well filter and 20 μL of filtrated samples were transferred to separate wells in a plate containing 180 μL MeCN/H2O (1:1). Standards were prepared by diluting the 10 mM compound solutions with MeCN/H2O (1:1) to 200 μM. Three further dilution steps of 10 times were applied to both the samples and standards and they were all analy sed by LC-MS/MS (Waters Xevo-TQS). Solubility was determined using the integrated peak areas of the samples in the linear MS response range. […]
# [2] = Metabolic stability in human liver microsomes (CLint HLM); format: in vitro ADME; settings: 1 mg/mL microsomal protein, 1 mM NADPH, 37 °C; for microsomal CLint at 1 μM: both sexes, human, liver microsomes, pH 7.4, measured on the labelled compound itself, n = 1, read-out: CLint HLM (intrinsic clearance in human liver microsomes); for CLint HLM (intrinsic clearance in human liver microsomes): measured on the labelled compound itself, 1 μM, n = 1
# Method: Metabolic stability in human liver microsomes (CLint HLM)
# Human liver microsomes were defrosted on ice and diluted to 1 mg/mL of microsomal protein in phosphate buffer (0.1 M, pH 7.4). Compounds at 1 μM were incubated with the liver microsome suspensions and 1 mM NADPH at 37 °C in a 96-well plate. At 0.5, 5, 10, 15, 20 and 30 min, aliquots of 30 μL were transferred to a 96-well plate containing 120 μL MeCN. This plate was centrifuged for 20 min and supernatant was removed and diluted with H2O (1:1) before analysis by LC-MS/MS (Waters Xevo-TQS). Peak areas were determined from extracted ion chromatograms, and the in vitro intrinsic clearance (in vitro CLint, in μL/min/mg microsomal protein) of parent compound was calculated from the slope in the regression analysis of the natural logarithm of parent concentration vs. time curve.
# Human Liver Microsomes (InVitroCYPTM 150-Donor, Mixed Gender) were harvested and supplied by BioIVT (Product No. X008070, Lot No. QQY). […]
# (§3) The modulation of pharmaceutically relevant properties on meta-C–H alkylation is shown below in Supplementary Fig. 68, with a selection of physicochemical and DMPK data including solubility , LogD, human plasma protein binding (Prot. Bind.) and intrinsic clearance (CLint) in human liver microsomes (HLM) or rat hepatocytes (Rat Hep.) .
# [3] = Fraction unbound in human plasma (Prot. Bind.), equilibrium dialysis; format: in vitro ADME; settings: 5 μM, dialysis at 37 °C for 18 hours
# Excerpt: as §1, §2
# (§4) The experimental methods used for these physicochemical & drug metabolism and pharmacokinetics (DMPK) assays are described below 11. […]
# Fraction unbound in human plasma (Prot. Bind.)
# Equilibrium dialysis of compounds was used to assess the fraction unbound in human plasma. Stock solutions of compounds dissolved in DMSO were pooled into cassettes with up to 10 compounds in each cassette with a concentration of 1 mM. The pooled stock solutions were diluted in plasma to a compound concentration of 5 μM. Warfarin, propranolol and metoprolol were used as reference compounds in each run. The equilibrium dialysis device (RED, Thermo Fischer Scientific Inc., Rockford, USA) was used for dialysis against phosphate buffer (pH 7.4) at 37 °C for 18 hours. Calibration curves ranging from 0.001 to 7 μM were made using aliquots of the 7 μM spiked plasma pools that were transferred to a new plate followed by serial dilutions with blank plasma. Calibration curve samples and dialysis samples were precipitated with MeCN and after centrifugation, supernatants were removed and analysed using LC-MS/MS (Waters Xevo-TQS). Fraction unbound in the incubation was calculated as the concentration in the media buffer sample divided by the concentration in the plasma sample. The fraction unbound was reported as the median value.
# [4] = Metabolic stability in male Han Wistar rat hepatocytes (CLint Rat Hep.); format: in vitro ADME; settings: measured on the labelled compound itself, 1 μM, 10^6 viable cells/mL, 37 °C, n = 1
# Method: Metabolic stability in male Han Wistar rat hepatocytes (CLint Rat Hep.) Hepatocyte metabolic stability was determined in accordance with the method described by Jacobson et al14. Cryopreserved hepatocytes at a concentration of 10 6 viable cells/mL were used. After thawing, hepatocytes were incubated for 10 min to warm to 37 °C, and compounds dissolved in MeCN were […]
# incubation system was mixed and 20 μL aliquots were transferred at each time point to wells in a separate plate filled with 80 μL MeCN to stop the reaction. The quenching plate was then vortexed followed by centrifugation, and supernatants were analysed by LC-MS/MS (Waters Xevo-TQS). Peak areas were determined from extracted ion chromatograms, and the in vitro intrinsic clearance (in vitro CLint, in μL/min/10^6 cells) of parent compound was calculated from the slope in the regression analysis of the natural logarithm of parent concentration vs. time curve. Rat Hepatocytes (Cryosuspension, Male Wistar Hannover ) were harvested and s upplied by BioIVT (Product No. M00065, Lot No. DVO).
# as §3
# [5] = Octanol/water partitioning (LogD), shake-flask method; format: physicochemical; settings: n = 1; for logD: 1-octanol/phosphate buffer, pH 7.4, 1-octanol / phosphate buffer pH 7.4, 20 °C; for LogD (octanol): 1-octanol / phosphate buffer pH 7.4, 20 °C
# Excerpt: as §1, §2, §4
# Octanol/water partitioning (LogD)
# Partitioning of compounds between 1 -octanol and phosphate buffer (0.1 M, pH 7.4) at 20 °C were determined using a modified version of the shake -flask method described by Leo et al13. Compounds were dissolved in a 96 -well plate, in 400 μL octanol, and 400 μL of buffer was added to each well. The plate was vigorously stirred for 5 min and then put on an Edmund Bühler shaker (Edmund Bühler GmbH, Hechingen, Germany) at 20 °C for 18 hours. Aliquots of 5 μL octanol were transferred and diluted with 495 μL MeCN/H2O (1:1) and, to avoid contamination of the buffer, the rest of the octanol was removed before 150 μL of buffer samples were transferred. Octanol and buffer samples were diluted with MeCN/H2O (1:1) in four steps of 10 times to yield octanol samples diluted 10 2 to 106 times and buffer samples diluted 1 to 104 times. LC-MS/MS (Waters Xevo-TQS) was used for analysis, and distribution coefficient at pH 7.4 (LogD7.4) was calculated from the integrated peak areas of the samples in the linear MS response range. LogD7.4 results were reported as median values. […]
# [6] = aqueous buffer, thermodynamic from solid
"solubility at 18 h [1, 6] [µM]",microsomal CLint at 1 μM [2] [µL/min/mg],"Prot. Bind. (% free), human plasma protein binding ([3]; n = 1) [% free]",logD [5],solubility at 18 h [1] [µM],CLint HLM (intrinsic clearance in human liver microsomes) [2] [µL/min/mg],"Prot. Bind. (% free), human plasma protein binding ([3]; n = 1, listed as 6b’) [% free]",LogD (octanol) [5],"Prot. Bind. (% free), human plasma protein binding ([3]; n = 1, listed as 5e’) [% free]","Prot. Bind. (% free), human plasma protein binding ([3]; n = 1, listed as 6e’) [% free]","Prot. Bind. (% free), human plasma protein binding ([3]; n = 1, listed as 6j’) [% free]",SMILES,CLint Rat Hep. (intrinsic clearance in rat hepatocytes) [4] [μL/min/10^6],CLint Rat Hep. (intrinsic clearance in rat hepatocytes) ([4]; listed as 6b’) [μL/min/10^6],CLint Rat Hep. (intrinsic clearance in rat hepatocytes) ([4]; listed as 5e’) [μL/min/10^6],CLint Rat Hep. (intrinsic clearance in rat hepatocytes) ([4]; listed as 6c’) [μL/min/10^6],CLint Rat Hep. (intrinsic clearance in rat hepatocytes) ([4]; listed as 6a’) [μL/min/10^6],CLint Rat Hep. (intrinsic clearance in rat hepatocytes) ([4]; listed as 6e’) [μL/min/10^6],CLint Rat Hep. (intrinsic clearance in rat hepatocytes) ([4]; listed as 6j’) [μL/min/10^6],CLint Rat Hep. (intrinsic clearance in rat hepatocytes) ([4]; listed as 6f’) [μL/min/10^6]
6,218,0.8,3.2,,,,,,,,"CCN(Cc1ccccc1)C(=O)Cn1c(=O)n(C)c2cnc(-c3ccccc3)nc21 [4e, emapunil, reference compound]",164,,,,,,,
8,> 300,0.8,4.2,> 1000,11.1,3.0,0.5,,,,CCOC(=O)C(C)(C)c1cccc(-c2ncc3c(n2)n(CC(=O)N(CC)Cc2ccccc2)c(=O)n3C)c1 [6b],> 300,10.3,,,,,,
17,> 300,0.4,4.4,> 1000,5.5,,0.7,2.0,,,CCOC(=O)C1(c2cccc(-c3ncc4c(n3)n(CC(=O)N(CC)Cc3ccccc3)c(=O)n4C)c2)CCC1 [5e],> 300,,15.9,,,,,
51,> 300,6.6,3.3,965,< 3.0,,0.3,,,,CCN(Cc1ccccc1)C(=O)Cn1c(=O)n(C)c2cnc(-c3cccc(C4(C(=O)OC)CC4)c3)nc21 [6c],> 300,,,36.2,,,,
41,> 300,12.0,3.3,924,< 3.0,,-0.5,,,,CCOC(=O)Cc1cccc(-c2ncc3c(n2)n(CC(=O)N(CC)Cc2ccccc2)c(=O)n3C)c1 [6a],> 300,,,,10.5,,,
36,> 300,0.4,4.3,864,< 3.0,,1.4,,0.7,,CCN(Cc1ccccc1)C(=O)Cn1c(=O)n(C)c2cnc(-c3cccc(C4(C(=O)OC)CCCC4)c3)nc21 [6e],> 300,,,,,51.0,,
< 2.4,> 300,< 0.1,,910,7.6,,> 3.6,,,0.8,CCN(Cc1ccccc1)C(=O)Cn1c(=O)n(C)c2cnc(-c3cccc(C4(C(=O)OCc5ccccc5)CN(C(=O)OC(C)(C)C)C4)c3)nc21 [6j],> 300,,,,,,17.2,
12,> 300,3.3,4.3,852,4.0,,-0.4,,,,CCOC(=O)C(F)(F)c1cccc(-c2ncc3c(n2)n(CC(=O)N(CC)Cc2ccccc2)c(=O)n3C)c1 [6f],> 300,,,,,,,6.8
50,> 300,0.5,3.9,,,,,,,,CCN(Cc1ccccc1)C(=O)Cn1c(=O)n(C)c2cnc(-c3cccc(C4(C#N)CCC4)c3)nc21 [6d],> 300,,,,,,,
